This assay addresses T1, recombinant human truncated SHIP1 (tSHIP1) (Homo sapiens, UniProt Q92835).
T1 construct: tSHIP1 (SHIP1, residues 397-864) was amplified from pET24TEV-tSHIP1; His tag; made in house; host or cells: E. coli BL21
T1 sequence (Q92835 397-864): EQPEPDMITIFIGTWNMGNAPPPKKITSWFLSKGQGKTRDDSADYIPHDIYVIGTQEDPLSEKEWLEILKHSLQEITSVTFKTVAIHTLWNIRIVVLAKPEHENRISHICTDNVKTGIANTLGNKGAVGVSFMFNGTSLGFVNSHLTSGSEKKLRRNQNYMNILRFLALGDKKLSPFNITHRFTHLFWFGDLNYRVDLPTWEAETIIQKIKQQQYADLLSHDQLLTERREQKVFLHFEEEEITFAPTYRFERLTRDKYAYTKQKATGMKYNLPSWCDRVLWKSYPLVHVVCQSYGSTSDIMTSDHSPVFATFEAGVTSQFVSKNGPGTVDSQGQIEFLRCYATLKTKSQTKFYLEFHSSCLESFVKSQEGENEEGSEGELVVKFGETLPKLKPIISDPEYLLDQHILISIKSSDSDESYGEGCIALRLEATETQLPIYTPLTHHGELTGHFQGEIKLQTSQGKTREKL
The assay can be described thus: Malachite Green Phosphatase Release Assay (SHIP1 phosphatase activity). In kind it is biochemical. The following applies: for Phosphatase activity in the Malachite Green Assay, analog concentration 125 μM: 125 μM analog; for Phosphatase activity in the Malachite Green Assay, analog concentration 125 μM / Phosphatase activity in the Malachite Green Assay, analog concentration 250 μM / Phosphatase activity in the Malachite Green Assay, analog concentration 500 μM: 100 μM PI(3,4,5)P3-diC8 substrate, normalized to vehicle control (DMSO) = 100%; for Phosphatase activity in the Malachite Green Assay, analog concentration 250 μM: 250 μM analog; for Phosphatase activity in the Malachite Green Assay, analog concentration 500 μM: 500 μM analog, >100% activation, <100% inhibition; for SHIP1 activator activity in the malachite green assay: discussion of Table 4 (125-500 μM). The procedure: ^aPhosphatase activity for SHIP1 and SHIP2 enzyme as determined in the malachite green assay. Results were normalized to the phosphatase activity level from vehicle control (DMSO) used as 100% activity. Values >100% are attributed to activation, while values <100% show inhibition of the enzyme compared to the control. The assay was performed at the indicated concentration of the small molecule with 100 μM PI(3,4,5)P3-diC8 as the substrate. ^bnd=not determined, compound 23 was insoluble.
Cloning and expression of tSHIP1 of truncated human SHIP1 protein (tSHIP1) from human whole blood mRNA have been previously described (see Brooks R, Iyer, S., Akada, H., Neelam, S., Russo, C. M., Chisholm, J. D., and Kerr W. G. Coordinate Expansion of Murine Hematopoietic and Mesenchymal Stem Cell Compartments by SHIPi Stem Cells 2015; 33:848). Briefly, tSHIP1 (SHIP1, residues 397-864) was amplified from pET24TEV-tSHIP1. Plasmids were extracted with Midi Prep (Qiagen) and sequences were verified by sequencing of the entire expression regions. The plasmids were then transformed into E. coli BL21 (New England Biolabs). Fresh colonies were amplified in 1 L LB at 37° C., shaking at 250 rpm until OD600 nm reached 0.6. Protein expression was induced with […] IPTG and incubation was continued at 16° C., shaking at 250 rpm for 16 h. Following centrifugation, bacteria pellets were stored overnight at −20° C. Protein was extracted form bacterial cell pellet using BugBuster HT (Millipore), according to manufacturer's recommendations. The His-tagged protein was purified by FPLC using HisTrapHP 5 ml column (Cytiva Life Sciences) at a 5 ml/min flow rate and 10 mM-1M imidazole gradient in Buffer A (20 mM Tris pH 8.0, 300 mM NaCl, 10 mM imidazole, 5 mM β-mercaptoethanol). Fractions containing active protein by Malachite Green Phosphatase Release Assay (Echelon, see below) were pooled, concentrated and buffer exchanged to reduce imidazole concentration by centrifugation using Pierce Protein Concentrators 30KMWCO PES, (ThermoFisher Scientific). Protein was aliquoted and stored at −80° C. in a mixture of Buffer A (without β-ME) and 50% glycerol.
Malachite Green Phosphatase Release Assays: Malachite Green Phosphatase Release Assays (Echelon Biosciences) were performed with recombinant human truncated SHIP1 (tSHIP1) (Brooks, 2015) and SHIP2 (Echelon Biosciences). Briefly, serial dilutions of the compounds dissolved in DMSO were added to the recombinant enzymes diluted in reaction buffer Rx (50 mM Hepes pH 7.4, 150 mM NaCl, 1 mM MgCl2, 0.25 mM EDTA) in triplicate reactions in 96-well plates. Reactions were incubated for 2 min at room temperature. […] of 1 mM Phosphatidylinositol 3,4,5-trisphosphate diC8 (PI(3,4,5)P3diC8) (Echelon Biosciences) was added to each reaction to a final concentration of 100 μM in a final volume of […]. Following 20 min incubation at 37° C., 100 μL of Malachite Green Solution (Echelon Biosciences) was added to each well and plates were incubated at room temperature in the dark for 15 min. Plates were then read at 620 nm on a plate reader (Synergy 2, BioTek).

This note sets out measurements from US20260199365A1, “BIS-SULFONAMIDE SHIP1 ACTIVATORS” (The Research Foundation for the State University of New York, priority 2022, published 2026).

On to `Cc1sc(S(=O)(=O)N2CCSCC2)cc1NC(=O)CNC(=O)OCc1ccccc1` [Compound K373, Benzyl N-({[2-methyl-5-(thiomorpholine-4-sulfonyl)thiophen-3-yl]carbamoyl}methyl) carbamate], for which the “Phosphatase activity in the Malachite Green Assay, analog concentration 125 μM” value is on record as 93%; the “Phosphatase activity in the Malachite Green Assay, analog concentration 250 μM” value worked out at 102%; the “Phosphatase activity in the Malachite Green Assay, analog concentration 500 μM” value was determined as 105%; the “SHIP1 activator activity in the malachite green assay” value (from here on “SHIP1 activator activity”) is given as “loss of potency”.

With `Cc1sc(S(=O)(=O)N(C)C)cc1NC(=O)CNS(=O)(=O)c1ccc(F)cc1` [Compound K388, N-[5-(Dimethylsulfamoyl)-2-methylthiophen-3-yl]-2-(4-fluorobenzenesulfonamido) acetamide], the “Phosphatase activity in the Malachite Green Assay, analog concentration 125 μM” value was 100%; the “Phosphatase activity in the Malachite Green Assay, analog concentration 250 μM” value stood at 97%; the “Phosphatase activity in the Malachite Green Assay, analog concentration 500 μM” value is 94%.

`Cc1sc(S(=O)(=O)N2CCSCC2)cc1N` [Compound K381]: the “Phosphatase activity in the Malachite Green Assay, analog concentration 125 μM” value was found to be 109%; the “Phosphatase activity in the Malachite Green Assay, analog concentration 250 μM” value amounted to 107%; the “Phosphatase activity in the Malachite Green Assay, analog concentration 500 μM” value stood at 113%; the “SHIP1 activator activity” value is listed as “reduced effect on SHIP activation”.

Consider `Cc1sc(S(=O)(=O)N2CCSCC2)cc1NC(=O)CNS(=O)(=O)c1ccccc1` [Compound K376, 2-Benzenesulfonamido-N-[2-methyl-5-(thiomorpholine-4-sulfonyl)thiophen-3-yl]acetamide], for which the “Phosphatase activity in the Malachite Green Assay, analog concentration 125 μM” value amounted to 104%; the “Phosphatase activity in the Malachite Green Assay, analog concentration 250 μM” value worked out at 106%; the “Phosphatase activity in the Malachite Green Assay, analog concentration 500 μM” value worked out at 107%; the “SHIP1 activator activity” value is “loss of bioactivity”.

With `Cc1sc(S(=O)(=O)N2CCSCC2)cc1NC(=O)[C@@H](C)NS(=O)(=O)c1ccc(F)cc1` [Compound K386, (2R)-2-(4-Fluorobenzenesulfonamido)-N-[2-methyl-5-(thiomorpholine-4-sulfonyl)thiophen-3-yl]propanamide], the “Phosphatase activity in the Malachite Green Assay, analog concentration 250 μM” value amounted to 108% and the “Phosphatase activity in the Malachite Green Assay, analog concentration 500 μM” value amounted to 116%.

Regarding `Cc1sc(S(=O)(=O)N2CCSCC2)cc1NC(=O)[C@H](C)NS(=O)(=O)c1ccc(F)cc1` [Compound K389, (2S)-2-(4-Fluorobenzenesulfonamido)-N-[2-methyl-5-(thiomorpholine-4-sulfonyl)thiophen-3-yl]propanamide], the “Phosphatase activity in the Malachite Green Assay, analog concentration 125 μM” value is given as 89%; the “Phosphatase activity in the Malachite Green Assay, analog concentration 250 μM” value is recorded as 118%; the “Phosphatase activity in the Malachite Green Assay, analog concentration 500 μM” value was determined as 132%.

In the case of `Cc1sc(S(=O)(=O)N2CCSCC2)cc1NC(=O)CNS(=O)(=O)c1cccc([N+](=O)[O-])c1` [Compound K392, N-[2-methyl-5-(thiomorpholine-4-sulfonyl)thiophen-3-yl]-2-(3-nitrobenzenesulfonamido) acetamide], the “Phosphatase activity in the Malachite Green Assay, analog concentration 250 μM” value amounted to 102%; the “Phosphatase activity in the Malachite Green Assay, analog concentration 500 μM” value is recorded as 106%; the “SHIP1 activator activity” value is given as “disappointing”.

As to `Cc1sc(S(=O)(=O)N2CCSCC2)cc1NC(=O)CNS(=O)(=O)c1ccc([N+](=O)[O-])cc1` [Compound K375, N-[2-methyl-5-(thiomorpholine-4-sulfonyl)thiophen-3-yl]-2-(4-nitrobenzenesulfonamido) acetamide], the “Phosphatase activity in the Malachite Green Assay, analog concentration 125 μM” value came to 108%; the “Phosphatase activity in the Malachite Green Assay, analog concentration 250 μM” value amounted to 115%; the “Phosphatase activity in the Malachite Green Assay, analog concentration 500 μM” value is 150%; the “SHIP1 activator activity” value is “increase in the activity”.

On to `Cc1sc(S(=O)(=O)N2CCCCC2)cc1NC(=O)[C@@H]1CCCN1S(=O)(=O)c1ccc(C(F)(F)F)cc1` [Compound K422], for which the “Malachite (SHIP1), 125 μM” value (bis-sulfonamide hybrids, 125 μM) stood at 96%. For the setting “bis-sulfonamide hybrids, 250 μM”, the “Malachite (SHIP1), 250 μM” value turned out to be 103%. Further, the “Malachite (SHIP1), 500 μM” value (bis-sulfonamide hybrids, 500 μM) was 126%.

In the case of `Cc1sc(S(=O)(=O)N2CCSCC2)cc1NC(=O)[C@@H](Cc1ccccc1)NS(=O)(=O)c1ccc(F)cc1` [Compound K395, (2R)-2-(4-Fluorobenzenesulfonamido)-N-[2-methyl-5-(thiomorpholine-4-sulfonyl)thiophen-3-yl]-3-phenylpropanamide], the “Phosphatase activity in the Malachite Green Assay, analog concentration 125 μM” value is 112%; the “Phosphatase activity in the Malachite Green Assay, analog concentration 250 μM” value is 106%; the “Phosphatase activity in the Malachite Green Assay, analog concentration 500 μM” value is given as 106%.

As for `O=C(CNS(=O)(=O)c1ccc(F)cc1)Nc1ccc(S(=O)(=O)N2CCSCC2)cc1` [Compound K399, 2-(4-Fluorobenzenesulfonamido)-N-[4-(thiomorpholine-4-sulfonyl)phenyl] acetamide], the “Phosphatase activity in the Malachite Green Assay, analog concentration 125 μM” value was found to be 112%; the “Phosphatase activity in the Malachite Green Assay, analog concentration 250 μM” value is given as 105%; the “Phosphatase activity in the Malachite Green Assay, analog concentration 500 μM” value came out at 130%; the “SHIP1 activator activity” value was “Activity was maintained”.

Take `Cc1sc(S(=O)(=O)N2CCSCC2)cc1NC(=O)CNS(=O)(=O)c1ccc(I)cc1` [Compound K374, 2-(4-Iodobenzenesulfonamido)-N-[2-methyl-5-(thiomorpholine-4-sulfonyl)thiophen-3-yl]acetamide]: the “Phosphatase activity in the Malachite Green Assay, analog concentration 125 μM” value is 99%; the “Phosphatase activity in the Malachite Green Assay, analog concentration 250 μM” value stood at 83%; the “Phosphatase activity in the Malachite Green Assay, analog concentration 500 μM” value worked out at 119%; the “SHIP1 activator activity” value was “loss of bioactivity”.

`Cc1sc(S(=O)(=O)N2CCSCC2)cc1NC(=O)CN1C(=O)c2ccccc2S1(=O)=O` [Compound K402, N-[2-methyl-5-(thiomorpholine-4-sulfonyl)thiophen-3-yl]-2-(1,1,3-trioxo-2,3-dihydro-1-benzothiazol-2-yl) acetamide]: the “Phosphatase activity in the Malachite Green Assay, analog concentration 125 μM” value is recorded as 109%; the “Phosphatase activity in the Malachite Green Assay, analog concentration 250 μM” value turned out to be 131%; the “Phosphatase activity in the Malachite Green Assay, analog concentration 500 μM” value was 161%; the “SHIP1 activator activity” value is “nearly as potent as 69”.

On to `Cc1sc(S(=O)(=O)N2CCOCC2)cc1NC(=O)CNS(=O)(=O)c1ccc(F)cc1` [Compound K367, 2-(4-Fluorobenzenesulfonamido)-N-[2-methyl-5-(morpholine-4-sulfonyl)thiophen-3-yl]acetamide], for which the “Phosphatase activity in the Malachite Green Assay, analog concentration 250 μM” value was found to be 93%; the “Phosphatase activity in the Malachite Green Assay, analog concentration 500 μM” value was found to be 94%; the “SHIP1 activator activity” value is reported as “loss of activity”.
